Results reported in ChEMBL document CHEMBL1909046, “DrugMatrix in vitro pharmacology data”.

What was measured:
Caspase-1 = molecular target: T1, Caspase-1 (Homo sapiens, UniProt P29466); design: species or system Escherichia coli;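 note: Caspase-1 enzyme inhibition assay with a peptide substrate; in other assays of this panel Not Active means under 50% inhibition at 10 µM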
T1 sequence (P29466 whole entry): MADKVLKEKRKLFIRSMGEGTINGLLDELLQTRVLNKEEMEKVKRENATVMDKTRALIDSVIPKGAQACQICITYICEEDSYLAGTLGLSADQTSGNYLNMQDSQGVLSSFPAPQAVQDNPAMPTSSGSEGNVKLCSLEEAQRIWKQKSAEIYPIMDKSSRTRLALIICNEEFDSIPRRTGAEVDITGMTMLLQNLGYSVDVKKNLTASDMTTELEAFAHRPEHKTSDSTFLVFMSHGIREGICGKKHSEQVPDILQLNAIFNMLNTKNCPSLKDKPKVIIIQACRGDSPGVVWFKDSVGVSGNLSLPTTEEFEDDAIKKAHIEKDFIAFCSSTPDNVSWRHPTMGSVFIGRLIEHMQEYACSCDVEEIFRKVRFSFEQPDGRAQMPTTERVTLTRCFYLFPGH

[1] = DRUGMATRIX: Platelet-Derived Growth Factor (PDGF) radioligand binding (ligand: [125I] PDGF); assay type: cell-based; conditions: nih3t3; Not Active = under 50% inhibition at 10 µM
[2] = molecular target: T2, C-X-C chemokine receptor type 2 (Homo sapiens, UniProt P25025); assay type: cell membranes, CHO-K1, Membrane; note: in other assays of this panel Not Active means under 50% inhibition at 10 µM
T2 sequence (P25025 whole entry): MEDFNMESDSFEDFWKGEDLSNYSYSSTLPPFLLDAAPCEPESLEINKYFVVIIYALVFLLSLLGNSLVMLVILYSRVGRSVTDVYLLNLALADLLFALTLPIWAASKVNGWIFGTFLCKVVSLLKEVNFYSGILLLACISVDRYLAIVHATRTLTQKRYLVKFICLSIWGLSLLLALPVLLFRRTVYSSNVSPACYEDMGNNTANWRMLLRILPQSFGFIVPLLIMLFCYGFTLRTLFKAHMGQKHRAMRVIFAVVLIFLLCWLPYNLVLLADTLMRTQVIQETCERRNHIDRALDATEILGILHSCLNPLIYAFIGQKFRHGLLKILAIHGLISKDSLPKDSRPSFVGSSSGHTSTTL

[3] = molecular target: Protein kinase C alpha type (Homo sapiens, UniProt P17252); assay type: cell-based; conditions: sf9;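 note: inhibition of PKCalpha kinase activity measured in an enzyme assay with histone as the phosphorylation substrate; in other assays of this panel Not Active means under 50% inhibition at 10 µM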
Acetylcholinesterase = Acetylcholinesterase (Homo sapiens, UniProt P22303); assay: DRUGMATRIX: Acetylcholinesterase enzyme inhibition (substrate: acetylthiocholine); assay type: cell-based, HEK293; conditions: hek293; Not Active = under 50% inhibition at 10 µM
Acetylcholinesterase, sequence (P22303 whole entry): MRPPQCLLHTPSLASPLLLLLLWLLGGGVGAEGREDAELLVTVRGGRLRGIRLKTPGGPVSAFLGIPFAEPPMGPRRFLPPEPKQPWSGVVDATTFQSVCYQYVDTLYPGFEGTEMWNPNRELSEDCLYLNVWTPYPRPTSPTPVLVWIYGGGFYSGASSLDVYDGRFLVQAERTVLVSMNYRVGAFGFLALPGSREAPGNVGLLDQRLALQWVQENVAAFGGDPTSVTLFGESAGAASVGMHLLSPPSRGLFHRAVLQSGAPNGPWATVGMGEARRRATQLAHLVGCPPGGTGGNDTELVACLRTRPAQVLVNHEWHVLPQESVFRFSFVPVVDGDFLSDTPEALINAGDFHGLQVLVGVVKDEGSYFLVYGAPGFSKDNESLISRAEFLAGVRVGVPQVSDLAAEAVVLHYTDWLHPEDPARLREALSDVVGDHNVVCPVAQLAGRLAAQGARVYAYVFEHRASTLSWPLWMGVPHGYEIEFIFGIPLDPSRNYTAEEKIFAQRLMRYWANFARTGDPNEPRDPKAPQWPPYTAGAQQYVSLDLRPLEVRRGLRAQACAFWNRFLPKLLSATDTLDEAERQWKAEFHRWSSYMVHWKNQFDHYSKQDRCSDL

[4] = DRUGMATRIX: Glutamate, NMDA, Phencyclidine radioligand binding (ligand: [3H] TCP); assay type: cell membranes, Rattus norvegicus, Wistar, Cerebral cortex, Membrane; conditions: Not Active = under 50% inhibition at 10 µM
Calcitonin receptor = molecular target: T3, Calcitonin receptor (Homo sapiens, UniProt P30988); assay type: cell membranes, Membrane; conditions: t47d; note: in other assays of this panel Not Active means under 50% inhibition at 10 µM
T3 sequence (P30988 whole entry): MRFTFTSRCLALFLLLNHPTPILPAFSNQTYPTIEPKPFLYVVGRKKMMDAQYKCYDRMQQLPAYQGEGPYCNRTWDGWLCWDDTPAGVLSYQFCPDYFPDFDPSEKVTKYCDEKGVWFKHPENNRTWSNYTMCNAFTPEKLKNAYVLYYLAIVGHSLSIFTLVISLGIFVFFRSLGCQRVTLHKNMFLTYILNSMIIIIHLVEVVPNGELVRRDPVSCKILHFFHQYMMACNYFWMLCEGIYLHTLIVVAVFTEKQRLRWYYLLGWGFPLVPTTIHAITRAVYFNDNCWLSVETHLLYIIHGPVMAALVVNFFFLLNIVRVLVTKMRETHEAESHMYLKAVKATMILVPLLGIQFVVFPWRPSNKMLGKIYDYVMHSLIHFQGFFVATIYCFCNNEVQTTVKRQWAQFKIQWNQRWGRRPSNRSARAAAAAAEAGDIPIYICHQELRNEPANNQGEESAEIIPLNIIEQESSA

With C#C[C@]1(O)CC[C@H]2[C@@H]3[C@H](C)CC4=C(CCC(=O)C4)[C@H]3CC[C@@]21C [TIBOLONE] the IC50 (Caspase-1) was “Not Active”, the IC50 [1] was “Not Active” and the Ki [1] was “Not Active”. For the same compound, the IC50 ([2]; cho-k1) was “Not Active”, the IC50 [3] was “Not Active” and the IC50 (Acetylcholinesterase) was “Not Active”. For the same compound, the IC50 [4] was “Not Active”, the Ki [4] was “Not Active” and the IC50 (Calcitonin receptor) was “Not Active”.
For CN1C(=O)OC(C)(C)C1=O [TRIMETHADIONE], the IC50 (Caspase-1) was “Not Active”, the IC50 [1] was “Not Active” and the Ki [1] was “Not Active”. For the same compound, the IC50 ([2]; cho-k1) was “Not Active”, the IC50 [3] was “Not Active” and the IC50 (Acetylcholinesterase) was “Not Active”. For the same compound, the IC50 [4] was “Not Active”, the Ki [4] was “Not Active” and the IC50 (Calcitonin receptor) was “Not Active”.
For OC[C@@H](O)[C@@H](O)[C@H](O)[C@H](O)CO [MANNITOL], the IC50 (Caspase-1) was “Not Active”, the IC50 [1] was “Not Active” and the Ki [1] was “Not Active”. For the same compound, the IC50 ([2]; cho-k1) was “Not Active”, the IC50 [3] was “Not Active” and the IC50 (Acetylcholinesterase) was “Not Active”. For the same compound, the IC50 [4] was “Not Active”, the Ki [4] was “Not Active” and the IC50 (Calcitonin receptor) was “Not Active”.
In the case of CCN(CC)C(=S)SSC(=S)N(CC)CC, the IC50 (Caspase-1) is reported as “Not Active”, the IC50 [1] is reported as “Not Active” and the Ki [1] is reported as “Not Active”. The IC50 ([2]; read-out: IC50) was 6.01 µM, the Ki ([2]; read-out: Ki) was 4.21 µM and the IC50 [3] was “Not Active”. The IC50 (Acetylcholinesterase) was “Not Active”, the IC50 [4] was “Not Active” and the Ki [4] was “Not Active”. The IC50 (Calcitonin receptor) was “Not Active”.
In the case of O=C(O)c1cc(/N=N/c2ccc(S(=O)(=O)Nc3ccccn3)cc2)ccc1O [SULFASALAZINE], the IC50 (Caspase-1; read-out: IC50) is reported as 28.8 µM, the IC50 [1] is reported as “Not Active” and the Ki [1] is reported as “Not Active”. The IC50 ([2]; cho-k1) was “Not Active”, the IC50 [3] was “Not Active” and the IC50 (Acetylcholinesterase) was “Not Active”. The IC50 [4] was “Not Active”, the Ki [4] was “Not Active” and the IC50 (Calcitonin receptor) was “Not Active”.
In the case of O=C(c1ccccc1)c1ccc2n1CCC2C(=O)O (stereo unspecified) [KETOROLAC], the IC50 (Caspase-1) is reported as “Not Active”, the IC50 [1] is reported as “Not Active” and the Ki [1] is reported as “Not Active”. The IC50 ([2]; cho-k1) was “Not Active”, the IC50 [3] was “Not Active” and the IC50 (Acetylcholinesterase) was “Not Active”. The IC50 [4] was “Not Active”, the Ki [4] was “Not Active” and the IC50 (Calcitonin receptor) was “Not Active”.
In the case of CC[C@H](C)[C@@H](CO[C@@H](Cc1ccccc1)C(=O)N[C@@H](CCS(C)(=O)=O)C(=O)OC(C)C)NC[C@@H](N)CS, the IC50 (Caspase-1) is reported as “Not Active”, the IC50 [1] is reported as “Not Active” and the Ki [1] is reported as “Not Active”. For the same compound, the IC50 ([2]; cho-k1) was “Not Active”, the IC50 [3] was “Not Active” and the IC50 (Acetylcholinesterase) was “Not Active”. The IC50 [4] was “Not Active”, the Ki [4] was “Not Active” and the IC50 (Calcitonin receptor) was “Not Active”.
In the case of CC(C)(C)NC[C@H](O)COc1cccc2c1CCCC2=O [LEVOBUNOLOL], the IC50 (Caspase-1) is reported as “Not Active”, the IC50 [1] is reported as “Not Active” and the Ki [1] is reported as “Not Active”. The IC50 ([2]; cho-k1) was “Not Active”, the IC50 [3] was “Not Active” and the IC50 (Acetylcholinesterase) was “Not Active”. The IC50 [4] was “Not Active”, the Ki [4] was “Not Active” and the IC50 (Calcitonin receptor) was “Not Active”.
With C[N+]1(C)[C@@H]2C[C@@H](OC(=O)[C@H](CO)c3ccccc3)C[C@H]1[C@@H]1O[C@@H]12.[Br-] [METHSCOPOLAMINE BROMIDE] the IC50 (Caspase-1) was “Not Active”, the IC50 [1] was “Not Active” and the Ki [1] was “Not Active”. The IC50 ([2]; cho-k1) was “Not Active”, the IC50 [3] was “Not Active” and the IC50 (Acetylcholinesterase) was “Not Active”. The IC50 [4] was “Not Active”, the Ki [4] was “Not Active” and the IC50 (Calcitonin receptor) was “Not Active”.
For CO[C@@H]1[C@@H](OC)[C@H](C)[C@@](O)(CC(=O)O)O[C@H]1[C@H](C)[C@H]1O[C@@]2(CC[C@@](C)([C@H]3CC[C@@](C)([C@@H]4O[C@@H]([C@H]5O[C@](C)(O)[C@H](C)C[C@@H]5C)C[C@@H]4O[C@@H]4C[C@H](OC)[C@@H](OC)[C@H](C)O4)O3)O2)C[C@H](O)[C@H]1C.N [MADURAMICIN], the IC50 (Caspase-1) was “Not Active”, the IC50 [1] was “Not Active” and the Ki [1] was “Not Active”. The IC50 ([2]; cho-k1) was “Not Active”, the IC50 [3] was “Not Active” and the IC50 (Acetylcholinesterase) was “Not Active”. The IC50 [4] was “Not Active”, the Ki [4] was “Not Active” and the IC50 (Calcitonin receptor) was “Not Active”.
In the case of Cc1cc2c(s1)Nc1ccccc1N=C2N1CCN(C)CC1 [OLANZAPINE], the IC50 (Caspase-1) is reported as “Not Active”, the IC50 ([2]; cho-k1) is reported as “Not Active” and the IC50 [3] is reported as “Not Active”. The IC50 (Acetylcholinesterase) was “Not Active” and the IC50 (Calcitonin receptor) was “Not Active”.
In the case of CN(C)CCC=C1c2ccccc2COc2ccccc21 [DOXEPIN], the IC50 (Caspase-1) is reported as “Not Active”, the IC50 ([2]; cho-k1) is reported as “Not Active” and the IC50 [3] is reported as “Not Active”. The IC50 (Acetylcholinesterase) was “Not Active” and the IC50 (Calcitonin receptor) was “Not Active”.
In the case of CNCCCC12CCC(c3ccccc31)c1ccccc12 [MAPROTILINE], the IC50 (Caspase-1) is reported as “Not Active”, the IC50 ([2]; cho-k1) is reported as “Not Active” and the IC50 [3] is reported as “Not Active”. The IC50 (Acetylcholinesterase) was “Not Active” and the IC50 (Calcitonin receptor) was “Not Active”.
